“Also recorded” adds a separate entry of the source.
Columns and labels:
advanced solid tumors = test: Phase I clinical trial of chiauranib in patients with advanced solid tumors; type: in vivo, human; conditions: for objective remission (complete remission CR and partial remission PR): 18 patients, 8 tumor types, oral once daily 10-65 mg dose escalation, RECIST 1.1
Protocol: Test drug: chiauranib capsules, strength: 5 mg, 25 mg, produced by Shenzhen Chipscreen Biosciences, Co., Ltd.
Dosage regimen: The starting dose was 10 mg/day. After the starting dose, according to the modified Fibonacci method, the patients were enrolled in order from low dose to high dose, and the set dose groups were 20 mg, 35 mg, 50 mg, 65 mg . . . dose groups, respectively, until the MTD was determined.
Chiauranib capsules were administered orally, once a day in the morning. Before knowing the analysis data of the effects of food on bioavailability, the drugs were administered on empty stomach.
Number of cases: 18 cases were enrolled.
The prescribed dose of Chiauranib capsules was administered orally on empty stomach once every day, and every 28 days was a treatment cycle; there was no stopping interval during the treatment cycles, and all enrolled patients received the test drug treatment until the disease progressed or intolerable toxicity appeared.
Efficacy evaluation: The clinical benefits of tumor treatment include:
Judgment criteria: The efficacy was evaluated according to the RECIST version 1.1 (2009) standard of solid tumors.
(§1) Safety assessment: physical examination, vital signs, ECOG physical score, blood routine, urine routine, 12-lead ECG, blood biochemistry, electrolytes, coagulation function, myocardial enzymes, troponin, TSH, FT3, FT4, amylase, echocardiography, 24-hour urine protein quantification (if necessary), and adverse events were included.
A total of 18 patients were enrolled in the trial, all of which were included in the FAS, SS, and PPS analysis sets. Among the 18 patients, 7 cases (38.9%) had colorectal cancer, 5 cases (27.8%) had non-small cell lung cancer, and 1 case each for gastric cancer, ovarian cancer, thyroid papillary carcinoma, diffuse large B-cell lymphoma, fibrosarcoma, and poorly differentiated renal carcinoma.

[1] = test system: recurrent and refractory small cell lung cancer; test: Phase Ib clinical trial of chiauranib alone in recurrent and refractory small cell lung cancer; type: in vivo, human; conditions: 50 mg/day QD oral
Protocol: Test drug: Chiauranib capsules, strength: 5 mg, 25 mg, produced by Shenzhen Chipscreen Biosciences, Co., Ltd.
Dosage regimen: Chiauranib capsules were administered at 50 mg/day, QD (no adjustments to body weight or body surface area), on an empty stomach every morning with water, swallowing whole capsules intact. Continuous administration for 28 days constituted a treatment cycle, and there was no interval between treatment cycles.
Number of cases: 25 cases were enrolled.
The test subjects were administered with 50 mg of Chiauranib capsules orally once a day, every 28 days as a treatment cycle, and there was no stopping interval during the treatment cycles. Throughout the trial period, all subjects continued treatment until any of the following conditions (whichever occurred first) occurred: disease progression, intolerable toxic response, death, withdrawal of informed consent, or loss to follow-up.
Efficacy evaluation: According to the RECIST1.1 standard, evaluation was performed in the baseline period and at the 4th weekend after treatment, and repeated every 8 weeks until the disease progressed. Tumor imaging examinations include CT or MRI of the neck, chest, whole abdomen, and pelvis. Examinations of other parts were carried out when necessary based on clinical indications. The same techniques and methods should be employed for the baseline of the lesion and follow-up assessment and measurement.
as §1, with “ECOG fitness” for “ECOG physical”, “12-lead ECG” for “12-lead ECG,”

SCLC = conditions: combined with best supportive treatment; cited from earlier work
[2] = 20 patients with efficacy evaluation

COc1ccc2c(Oc3ccc4c(C(=O)Nc5ccccc5N)cccc4c3)ccnc2c1 [chiauranib, N-(2-aminophenyl)-6-(7-methoxyquinoline-4-oxo)-1-naphthylamide]
PR, number of patients (advanced solid tumors; 8 common tumors, 18 patients evaluated): 0
objective remission (complete remission CR and partial remission PR) (advanced solid tumors): no objective remission was observed; also recorded: no patients with objective remission were observed
objective remission (complete remission CR and partial remission PR) (advanced solid tumors; listed as Chiauranib): no cases with objective remission were observed
objective response rate (ORR) / PR (%) [1, 2]: 20%
patients whose target lesions were reduced by more than 30% from baseline, number [1, 2]: 5 patients
patients whose target lesions were reduced by more than 30% from baseline, percent [1, 2]: 25%
best efficacy evaluation PR, number of patients ([1]; 20 patients with efficacy evaluation of 25 enrolled, RECIST 1.1): 4 patients

CC[C@@]1(O)C(=O)OCc2c1cc1n(c2=O)Cc2cc3c(CN(C)C)c(O)ccc3nc2-1 [topotecan]
overall survival, quality of life and improvement of symptoms versus best supportive treatment alone (SCLC): significantly better

— US20220184055A1, “CHIAURANIB FOR TREATMENT OF SMALL CELL LUNG CANCER” (SHENZHEN CHIPSCREEN BIOSCIENCES CO., LTD., priority 2019, published 2022)
